In a melting point compilation (Tetko et al.; mined from patent text by program, amines drawn as free bases though some values may be those of a salt):

Row | Compound | melting point
1 | CCOc1ccccc1N1CCN(CCC2OCCc3cc(C(N)=O)ccc32)CC1 (stereo not given) | 208 to 210 °C
2 | CC(C)[Si](C(C)C)(C(C)C)N1C=C2C=C(Br)OCC3=C2C(=C1)CC3N(C)C (stereo not given) | 119 to 121 °C
3 | CCCc1nc(CO)c(C(=O)OCOC(=O)C(C)(C)C)n1Cc1ccc(-c2ccccc2-c2nnn[nH]2)cc1 | > 60 °C
4 | CC(C)n1cc(-c2ccc(C=O)cc2)c2c(Cl)ncnc21 | 138 to 140 °C
5 | c1ccc(CN2CCC3(CC2)Oc2ccccc2Cn2cccc23)cc1 | 109 to 111 °C
6 | COc1cc(I)cc(OC)c1 | 73 to 74 °C
7 | COc1ccccc1Oc1c(NS(=O)(=O)c2c(C)noc2C)nc(-c2ncccn2)nc1OCCOC(=O)Nc1ccccn1 | 217 to 218 °C
8 | CC(C)OC(=O)c1ccc(Cl)cc1S(N)(=O)=O | 140 to 142 °C
9 | CC(C)(C)CNS(=O)(=O)c1cccc(NC(=O)c2cnn3c(C(F)F)cc(-c4ccc(C(F)(F)F)cc4)nc23)c1 | 208 °C
10 | CC(C)(C)c1cc2c(c(C(=O)Nc3ccc(S(=O)(=O)C(F)(F)F)cc3Cl)c1O)CCCC2 | 151 °C
11 | NC(=O)CCC/C=C\[C@@H]1C[C@@H](NS(=O)(=O)c2ccc(Cl)cc2)CN1S(=O)(=O)c1ccc(Cl)cc1 | 142 to 143 °C
12 | NC(=S)C1CCCc2cccnc21 (stereo not given) | 160 °C
13 | CC[C@@H]1O[C@](/C=C/C2CC2)(C(F)(F)F)c2cc(Cl)ccc2NC1=O (relative stereo) | 147 to 148 °C
14 | Cc1nc(CCl)c(Br)s1 | 154 to 156 °C
15 | O=C(O)c1ccccc1C(=O)c1ccc(N2CCCC2)cc1O | 190 to 192 °C
16 | CCOC(=O)C1=C(C)NC(CS(=O)c2ccccc2)=C(C(=O)OCC)C1c1cccc([N+](=O)[O-])c1 (stereo not given) | 160 to 162 °C
17 | COc1ccc(C(=O)Nc2ccccc2)cc1NCc1cccc(C(F)(F)F)c1 | 167 to 171 °C
18 | O=c1[nH]ncc2[nH]c(-c3ccc(OC(F)F)c(OC4CCC4)c3)cc12 | 289 to 291 °C
19 | CN(CCN1CCCCC1)S(=O)(=O)c1cc([N+](=O)[O-])ccc1Sc1cc(Cl)cc(Cl)c1 | 113 to 114 °C
20 | CCc1c(OC)nc2nc(C(N)=S)cn2c1C | 248 to 259 °C
21 | NC(CC(=O)O)C1CC=CCC1 (stereo not given) | 208 to 210 °C
22 | COc1cc2c(cc1OC)CC(=S)N(CCCN(C)C1CCc3cc(OC)c(OC)cc3C1)CC2 (stereo not given) | 70 to 75 °C
23 | Cc1cc(C#N)c(Cl)nc1C | 83 to 87 °C
24 | c1ccc(-c2cc(OCC3CO3)no2)cc1 (stereo not given) | 98 to 99 °C

Row | Compound | melting point
25 | O=c1ccc(Oc2ccccc2)n[nH]1 | 148 °C
26 | Cc1[nH]cnc1/C=C1\CCc2sc3ccccc3c2C1=O | 220 to 223 °C
27 | Cc1ccc(N2CCN(Cc3cnc(N)nc3N)CC2)cc1 | 248 to 250 °C
28 | CCCOc1cc(CCCOc2c(CC(=O)O)cccc2OC)n(Cc2ccc(Cl)cc2)n1 | 131 to 132 °C
29 | COc1ccc(CC(NC(=O)CNC(=O)OCc2ccccc2)C(=O)NC2C(C(=O)O)OC(n3cnc4c(NC(=O)c5ccccc5)ncnc43)C2O)cc1 (stereo not given) | 78 to 84 °C
30 | O=C1N(Cc2cccc(Cl)n2)c2ccccc2C12COc1cc3c(cc12)OCCO3 (stereo not given) | 181 to 182 °C
31 | CCOC(=O)c1c2c(nc3ccccc13)CCN(C(=O)OCC)CC2 | 94 °C
32 | CN(C)C(=S)Nc1ccc(NNC=O)cc1 | 187 to 189 °C
33 | COC(=O)c1ccc2c(c1)S(=O)(=O)c1ccccc1N=C2Cl | 254 to 256 °C
34 | CN(C)C(=O)c1nc(-c2cccnc2)nc2c1c1ccc(Cl)cc1n2C | 283 to 284 °C
35 | CC(C)(SC(F)(F)F)C(O)C(Oc1ccc(Cl)cc1)n1cncn1 (stereo not given) | 85 to 87 °C
36 | CCCCCCCCCCCCCCOc1ccc(N)cc1OCCCCCCCCCCCCCC | 55 to 58 °C
37 | CCOCn1c(Br)c(Br)c(C#N)c1C(F)(F)F | 65 to 67 °C
38 | O=C(O)c1ccc(OCCCCCCCCCCO)cc1 | 115 to 117 °C
39 | CC(=O)Nc1cccc(Nc2ncnc3[nH]cc(C(=O)c4cccc5ccccc45)c23)c1 | > 300 °C
40 | Cc1ccc(S(=O)(=O)NC(Cc2ccccc2)C(=O)NCCCCC(C(=O)O)N(CC(C)C)S(=O)(=O)c2ccc(C)cc2)cc1 (stereo not given) | 301 to 306 °C
41 | CC(CF)(CF)C(=O)C(Br)Oc1ccc(Cl)cc1 (stereo not given) | 54 to 57 °C
42 | NS(=O)(=O)c1ccc(-n2nc(C(F)(F)F)cc2-c2ccc(-c3cnco3)cc2)cc1 | 128 to 130 °C
43 | N#Cc1ccc(-c2ccc(OS(N)(=O)=O)c(Cl)c2)cc1Cn1cncn1 | 155 to 158 °C
44 | CCCC1=C(C#N)C(c2ccccc2Cl)c2c(n[nH]c2-c2ccccc2)N1 (stereo not given) | 262 °C
45 | CCN1CCN(C(=O)NC(C(=O)O)c2cc(OC(C)=O)c(OC(C)=O)cc2F)C(=O)C1=O (stereo not given) | 177 to 179 °C
46 | C#CCN1C(=O)NC(C)(C)C1=O | 156 to 160 °C
47 | COc1ccc(CCNCC(O)c2ccccc2)cc1OC (stereo not given) | 92 to 93 °C
48 | CCCCNC(=O)NS(=O)(=O)c1c(C(=O)OC)cnn1C | 88 to 90 °C

Row | Compound | melting point
49 | CC(=O)c1nc2cc(C(F)(F)F)c(Cl)cc2n1-c1ccc(CCNC(=O)NS(=O)(=O)c2ccc(C)cc2)cc1 | 225 °C
50 | CCOC(=O)N(C(=S)NC(C)C)c1c(C(C)C)cc(Oc2ccccc2)cc1C(C)C | 107 to 108 °C
51 | CC1(C)NC(=O)N(CC#CI)C1=O | 118 to 126 °C
52 | Cc1c(CN(CCc2c(I)c3ccccc3n2C)C(=O)C(F)(F)F)ncn1S(=O)(=O)N(C)C | 141 to 143 °C
53 | CC(C)(c1ccccc1)c1cccc(S(=O)(=O)NC(CCCNC(=N)N)C(=O)N2CCC(CC(=O)O)CC2)c1 (stereo not given) | 188 to 191 °C
54 | O=C(O)CC(=O)OCC(Cl)(Cl)Cl | 42 to 43 °C
55 | N#Cc1c(N2CCN(C(=O)c3cccs3)CC2)c2cccnc2[nH]c1=O | 320 °C
56 | CC(C)NCc1ccc(COc2cccc3c2CN(C2CCC(=O)NC2=O)C3=O)cc1 (stereo not given) | 165 to 167 °C
57 | N#CCN1CCC(=C2c3cc(F)ccc3CCn3ccnc32)CC1 | 198 °C
58 | CCCOc1ccccc1-c1nc2cc(N)c(N)cc2c(=O)[nH]1 | 195 to 197 °C
59 | CCCc1nn(-c2ccc(C(F)(F)F)cn2)cc1CCCOc1c(CC(=O)O)cnn1CC | 125 to 126 °C
60 | COC(=O)C(C(=O)OC)C(C)(N)C(Cc1ccccc1[N+](=O)[O-])c1ccccc1 (stereo not given) | 114 °C
61 | O=C1Cc2ccccc2N1Nc1ccncc1 | 221 to 224 °C
62 | COc1ccc2c(c1)cc(C(=O)c1cc3ccccc3n1S(=O)(=O)c1ccccc1)n2S(=O)(=O)c1ccccc1 | 205 °C
63 | Cc1c(N2C[C@@H](N)[C@@H](C(F)F)C2)c(F)cc2c(=O)c(C(=O)O)cn([C@@H]3C[C@@H]3F)c12 | 214 to 216 °C
64 | C=C(C)C(=O)c1ccc(OC)c(Cl)c1Cl | 59 °C
65 | COc1ccc2c(c1)C(=O)Nc1ccccc1N2 | 216 to 218 °C
66 | CCOc1ccc2c(c1)C(c1ccccc1)C(=O)N2 (stereo not given) | 125 to 130 °C
67 | Cc1nc2c(N)nc3c(c2n1CCCCS(=O)(=O)C(C)C)CCCC3 | 177 to 178 °C
68 | Cn1cc(C(=O)NCc2ccc(Cl)cc2)c(=O)c2cc(CN3CCCSCC3)ccc21 | 166 to 167 °C
69 | OC(CSc1ccnc2ccccc12)c1ccc2ccccc2c1 (stereo not given) | 170 to 172 °C
70 | Cc1c(-c2ccc(N(C)C)nn2)ssc1=S | 216 °C
